Patent US8927500B2, “Peptidomimetic macrocycles” (Aileron Therapeutics, Inc., priority 2012, dated 2015)
Like-named read-outs stand apart in the source and are kept apart here. Where a SMILES comes first, the peptide text is derived from it. Bridges are numbered along the chain shown (N, C = ends). [ ]: non-standard residue; d: D form. The star is where a group is joined. 5TAMRA = CN(C)c1ccc2c(c1)Oc1cc(N(C)C)ccc1C21OC(=O)c2cc(C(=O)*)ccc21; Phe(4-guanidino) = N=C(N)Nc1ccc(C[C@H](N)C(=O)O)cc1; dPhe(4-CF3) = N[C@H](Cc1ccc(C(F)(F)F)cc1)C(=O)O; pY = N[C@@H](Cc1ccc(OP(=O)(O)O)cc1)C(=O)O; Gla = N[C@@H](CC(C(=O)O)C(=O)O)C(=O)O; R8 = C=CCCCCCC[C@@](C)(N)C(=O)O; Cit = NC(=O)NCCC[C@H](N)C(=O)O; S8 = C=CCCCCCC[C@](C)(N)C(=O)O; Cba = N[C@@H](CC1CCC1)C(=O)O; R5 = C=CCCC[C@@](C)(N)C(=O)O; S5 = C=CCCC[C@](C)(N)C(=O)O; Aib = CC(C)(N)C(=O)O; βAla = NCCC(=O)O

What was measured:
MDMX = target: T1, MDMX (Homo sapiens, UniProt O15151); test: Competitive fluorescence polarization assay for MDMX; type: binding; details: competitive FP assay; for IC50: read-out: IC50 (MDMX)
T1 sequence (O15151 1-125): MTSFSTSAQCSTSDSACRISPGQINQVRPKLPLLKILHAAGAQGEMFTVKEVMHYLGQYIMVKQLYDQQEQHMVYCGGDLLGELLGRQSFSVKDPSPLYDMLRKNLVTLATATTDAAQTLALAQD

MDM2 = MDM2 (Homo sapiens, UniProt Q00987); test: Competitive fluorescence polarization assay for MDM2; type: binding; details: competitive FP assay, MDM2; for IC50: read-out: IC50 (MDM2)
Chain of MDM2 (Q00987 1-125): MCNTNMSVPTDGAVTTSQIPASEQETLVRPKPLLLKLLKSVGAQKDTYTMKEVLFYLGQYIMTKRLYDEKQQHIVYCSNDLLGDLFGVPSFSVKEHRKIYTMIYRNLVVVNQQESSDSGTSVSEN

| SMILES | Ki (MDMX; read-out: Ki (MDMX)) [nM] | Ki (MDM2; read-out: Ki (MDM2)) [nM] | IC50 (MDMX) [nM] | IC50 (MDM2) [nM] | further results |
| --- | --- | --- | --- | --- | --- |
| CC(=O)N[C@@H](CC(C)C)C(=O)N[C@H](C(=O)N[C@@H](Cc1ccccc1)C(=O)N[C@]1(C)CCCCCCC=CCCC[C@@](C)(C(=O)N[C@@H](C)C(=O)N[C@@H](C)C(=O)N[C@@H](C)C(=O)N[C@@H](C)C(=O)N[C@@H](C)C(=O)N[C@H](C)C(N)=O)NC(=O)[C@H](CC(C)C)NC(=O)[C@H](CCC(N)=O)NC(=O)[C@H](C)NC(=O)[C@H](Cc2c[nH]c3ccccc23)NC(=O)[C@H](Cc2ccc(O)cc2)NC(=O)[C@H](CC(C(=O)O)C(=O)O)NC1=O)[C@@H](C)O [compound 602] (Ac-LTF[R8][Gla]YWAQL[S5]AAAAA[dA]-NH2; staple 4-11) | – | – | – | – | Ki (MDMX; Ki (MDMX)): < 10 nM; Ki (MDM2; Ki (MDM2)): < 10 nM |
| CC(=O)N[C@@H](CC(C)C)C(=O)N[C@H](C(=O)N[C@@H](Cc1ccccc1)C(=O)N[C@]1(C)CCCCCCC=CCCC[C@@](C)(C(=O)N[C@@H](C)C(=O)N[C@@H](C)C(=O)N[C@@H](C)C(=O)N[C@@H](C)C(=O)N[C@@H](C)C(=O)N[C@H](C)C(N)=O)NC(=O)[C@H](CC(C)C)NC(=O)[C@H](CCC(N)=O)NC(=O)[C@H](C)NC(=O)[C@H](Cc2c[nH]c3ccccc23)NC(=O)[C@H](Cc2ccc(O)cc2)NC(=O)[C@H](Cc2ccc(NC(=N)N)cc2)NC1=O)[C@@H](C)O [compound 603] (Ac-LTF[R8][Phe(4-guanidino)]YWAQL[S5]AAAAA[dA]-NH2; staple 4-11) | – | – | – | – | Ki (MDMX; Ki (MDMX)): < 10 nM; Ki (MDM2; Ki (MDM2)): < 10 nM |
| CC(=O)N[C@@H](CC(C)C)C(=O)N[C@H](C(=O)N[C@@H](Cc1ccccc1)C(=O)N[C@]1(C)CCCCCCC=CCCC[C@@](C)(C(=O)N[C@@H](C)C(=O)N[C@@H](C)C(=O)N[C@@H](C)C(=O)N[C@@H](C)C(=O)N[C@@H](C)C(=O)N[C@H](C)C(N)=O)NC(=O)[C@H](CC(C)C)NC(=O)[C@H](CC(C)C)NC(=O)[C@H](C)NC(=O)[C@H](Cc2c[nH]c3ccccc23)NC(=O)[C@H](Cc2ccc(O)cc2)NC(=O)[C@H](CCC(=O)O)NC1=O)[C@@H](C)O [compound 608] (Ac-LTF[R8]EYWALL[S5]AAAAA[dA]-NH2; staple 4-11) | 10 to 100 | < 10 | – | – | – |
| CC(=O)N[C@@H](CC(C)C)C(=O)N[C@H](C(=O)N[C@@H](Cc1ccccc1)C(=O)N[C@]1(C)CCCCCCC=CCCC[C@@](C)(C(=O)N[C@@H](C)C(=O)N[C@@H](C)C(=O)N[C@@H](C)C(=O)N[C@@H](C)C(=O)N[C@@H](C)C(=O)N[C@H](C)C(N)=O)NC(=O)[C@H](CC(C)C)NC(=O)C(C)(C)NC(=O)[C@H](C)NC(=O)[C@H](Cc2c[nH]c3ccccc23)NC(=O)[C@H](Cc2ccc(O)cc2)NC(=O)[C@H](CCC(=O)O)NC1=O)[C@@H](C)O [compound 609] (Ac-LTF[R8]EYWA[Aib]L[S5]AAAAA[dA]-NH2; staple 4-11) | 10 to 100 | < 10 | – | – | – |
| CC(=O)N[C@@H](CC(C)C)C(=O)N[C@H](C(=O)N[C@@H](Cc1ccccc1)C(=O)N[C@]1(C)CCCCCCC=CCCC[C@@](C)(C(=O)N[C@@H](C)C(=O)N[C@@H](C)C(=O)N[C@@H](C)C(=O)N[C@@H](C)C(=O)N[C@@H](C)C(=O)N[C@H](C)C(N)=O)NC(=O)[C@H](CC(C)C)NC(=O)[C@H](CO)NC(=O)[C@H](C)NC(=O)[C@H](Cc2c[nH]c3ccccc23)NC(=O)[C@H](Cc2ccc(O)cc2)NC(=O)[C@H](CCC(=O)O)NC1=O)[C@@H](C)O [compound 610] (Ac-LTF[R8]EYWASL[S5]AAAAA[dA]-NH2; staple 4-11) | 10 to 100 | < 10 | – | – | – |
| CC(=O)N[C@@H](CC(C)C)C(=O)N[C@H](C(=O)N[C@@H](Cc1ccccc1)C(=O)N[C@]1(C)CCCCCCC=CCCC[C@@](C)(C(=O)N[C@@H](C)C(=O)N[C@@H](C)C(=O)N[C@@H](C)C(=O)N[C@@H](C)C(=O)N[C@@H](C)C(=O)N[C@H](C)C(N)=O)NC(=O)[C@H](CC(C)C)NC(=O)[C@H](CC(N)=O)NC(=O)[C@H](C)NC(=O)[C@H](Cc2c[nH]c3ccccc23)NC(=O)[C@H](Cc2ccc(O)cc2)NC(=O)[C@H](CCC(=O)O)NC1=O)[C@@H](C)O [compound 611] (Ac-LTF[R8]EYWANL[S5]AAAAA[dA]-NH2; staple 4-11) | 10 to 100 | < 10 | – | – | – |
| CC(=O)N[C@@H](CC(C)C)C(=O)N[C@H](C(=O)N[C@@H](Cc1ccccc1)C(=O)N[C@]1(C)CCCCCCC=CCCC[C@@](C)(C(=O)N[C@@H](C)C(=O)N[C@@H](C)C(=O)N[C@@H](C)C(=O)N[C@@H](C)C(=O)N[C@@H](C)C(=O)N[C@H](C)C(N)=O)NC(=O)[C@H](CC(C)C)NC(=O)[C@H](CCCNC(N)=O)NC(=O)[C@H](C)NC(=O)[C@H](Cc2c[nH]c3ccccc23)NC(=O)[C@H](Cc2ccc(O)cc2)NC(=O)[C@H](CCC(=O)O)NC1=O)[C@@H](C)O [compound 612] (Ac-LTF[R8]EYWA[Cit]L[S5]AAAAA[dA]-NH2; staple 4-11) | 10 to 100 | < 10 | – | – | – |
| CC(=O)N[C@@H](CC(C)C)C(=O)N[C@H](C(=O)N[C@@H](Cc1ccccc1)C(=O)N[C@]1(C)CCCCCCC=CCCC[C@@](C)(C(=O)N[C@@H](C)C(=O)N[C@@H](C)C(=O)N[C@@H](C)C(=O)N[C@@H](C)C(=O)N[C@@H](C)C(=O)N[C@H](C)C(N)=O)NC(=O)[C@H](CC(C)C)NC(=O)[C@H](Cc2c[nH]cn2)NC(=O)[C@H](C)NC(=O)[C@H](Cc2c[nH]c3ccccc23)NC(=O)[C@H](Cc2ccc(O)cc2)NC(=O)[C@H](CCC(=O)O)NC1=O)[C@@H](C)O [compound 613] (Ac-LTF[R8]EYWAHL[S5]AAAAA[dA]-NH2; staple 4-11) | 10 to 100 | < 10 | – | – | – |
| CC(=O)N[C@@H](CC(C)C)C(=O)N[C@H](C(=O)N[C@@H](Cc1ccccc1)C(=O)N[C@]1(C)CCCCCCC=CCCC[C@@](C)(C(=O)N[C@@H](C)C(=O)N[C@@H](C)C(=O)N[C@@H](C)C(=O)N[C@@H](C)C(=O)N[C@@H](C)C(=O)N[C@H](C)C(N)=O)NC(=O)[C@H](CC(C)C)NC(=O)[C@H](CCC(N)=O)NC(=O)[C@H](C)NC(=O)[C@H](Cc2c[nH]c3ccccc23)NC(=O)[C@H](Cc2ccc(OP(=O)(O)O)cc2)NC(=O)[C@H](CCC(=O)O)NC1=O)[C@@H](C)O [compound 615] (Ac-LTF[R8]E[pY]WAQL[S5]AAAAA[dA]-NH2; staple 4-11) | – | – | – | – | Ki (MDMX; Ki (MDMX)): < 10 nM; Ki (MDM2; Ki (MDM2)): < 10 nM |
| CC(C)C[C@H](NC(=O)CCNC(=O)c1ccc2c(c1)C(=O)OC21c2ccc(N(C)C)cc2Oc2cc(N(C)C)ccc21)C(=O)N[C@H](C(=O)N[C@@H](C)C(=O)N[C@]1(C)CCCCCCC=CCCC[C@@](C)(C(=O)N[C@@H](CO)C(=O)N[C@@H](C)C(=O)N[C@@H](C)C(N)=O)NC(=O)[C@H](CC2CCC2)NC(=O)[C@H](CCC(N)=O)NC(=O)[C@H](C)NC(=O)[C@H](Cc2c[nH]c3ccccc23)NC(=O)[C@H](Cc2ccc(O)cc2)NC(=O)[C@H](CCC(=O)O)NC1=O)[C@@H](C)O [compound 687] ({5TAMRA-βAla}-LTA[R8]EYWAQ[Cba][S5]SAA-NH2; staple 4-11) | 100 to 1000 | 100 to 1000 | – | – | – |
| CC(=O)N[C@@H](C(=O)N[C@]1(C)CCCC=CCCC[C@](C)(C(=O)N[C@H](Cc2ccc(C(F)(F)F)cc2)C(=O)N[C@H](CCC(=O)O)C(=O)N[C@H](CCCCN)C(=O)N[C@H](CC(C)C)C(=O)N[C@H](CC(C)C)C(=O)N[C@H](CCCNC(=N)N)C(N)=O)NC(=O)[C@@H](C)NC(=O)[C@@H](Cc2ccc(O)cc2)NC(=O)[C@@H](Cc2c[nH]c3ccccc23)NC1=O)[C@H](C)O [compound 752] (Ac-[dT][R5][dW][dY][dA][R5][dPhe(4-CF3)][dE][dK][dL][dL][dR]-NH2; staple 2-6) | – | – | > 1000 | 100 to 1000 | – |
| CC(=O)N[C@@H](C(=O)N[C@H](C)C(=O)N[C@H](Cc1c[nH]c2ccccc12)C(=O)N[C@H](Cc1ccc(O)cc1)C(=O)N[C@]1(C)CCCC=CCCC[C@](C)(C(=O)N[C@H](CC(C)C)C(=O)N[C@H](CC(C)C)C(=O)N[C@H](CCCNC(=N)N)C(N)=O)NC(=O)[C@@H](CCC(=O)O)NC(=O)[C@@H](Cc2ccc(C(F)(F)F)cc2)NC(=O)[C@@H](CC(N)=O)NC1=O)[C@H](C)O [compound 753] (Ac-[dT][dA][dW][dY][R5][dN][dPhe(4-CF3)][dE][R5][dL][dL][dR]-NH2; staple 5-9) | – | – | > 1000 | 10 to 100 | – |
| CC(=O)N[C@@H](C(=O)N[C@H](C)C(=O)N[C@H](Cc1c[nH]c2ccccc12)C(=O)N[C@H](Cc1ccc(O)cc1)C(=O)N[C@H](C)C(=O)N[C@]1(C)CCCC=CCCC[C@](C)(C(=O)N[C@H](CC(C)C)C(=O)N[C@H](CCCNC(=N)N)C(N)=O)NC(=O)[C@@H](CCCCN)NC(=O)[C@@H](CCC(=O)O)NC(=O)[C@@H](Cc2ccc(C(F)(F)F)cc2)NC1=O)[C@H](C)O [compound 754] | – | – | > 1000 | 100 to 1000 | – |
| CC(=O)N[C@@H](C(=O)N[C@H](C)C(=O)N[C@H](Cc1c[nH]c2ccccc12)C(=O)N[C@H](Cc1ccc(O)cc1)C(=O)N[C@H](C)C(=O)N[C@H](CC(N)=O)C(=O)N[C@H](Cc1ccc(C(F)(F)F)cc1)C(=O)N[C@H](CCC(=O)O)C(=O)N[C@]1(C)CCCC=CCCC[C@](C)(C(=O)N[C@H](C)C(N)=O)NC(=O)[C@@H](CCCNC(=N)N)NC(=O)[C@@H](CC(C)C)NC(=O)[C@@H](CC(C)C)NC1=O)[C@H](C)O [compound 755] (Ac-[dT][dA][dW][dY][dA][dN][dPhe(4-CF3)][dE][R5][dL][dL][dR][R5][dA]-NH2; staple 9-13) | – | – | > 1000 | < 10 | – |
| CC(=O)N[C@@H](C(=O)N[C@@]1(C)CCCCCCC=CCCC[C@](C)(C(=O)N[C@H](CC(C)C)C(=O)N[C@H](CC(C)C)C(=O)N[C@H](CCCNC(=N)N)C(N)=O)NC(=O)[C@@H](CCC(=O)O)NC(=O)[C@@H](Cc2ccc(C(F)(F)F)cc2)NC(=O)[C@@H](CC(N)=O)NC(=O)[C@@H](C)NC(=O)[C@@H](Cc2ccc(O)cc2)NC(=O)[C@@H](Cc2c[nH]c3ccccc23)NC1=O)[C@H](C)O [compound 756] (Ac-[dT][S8][dW][dY][dA][dN][dPhe(4-CF3)][dE][R5][dL][dL][dR]-NH2; staple 2-9) | – | – | > 1000 | 10 to 100 | – |
